Results published in patent publication US12599666B2, “Photolytic compounds and triplet-triplet annihilation mediated photolysis” (University of Massachusetts, priority 2019, dated 2026).
Where two headings read alike, the source gives them in different places.

Columns and labels:
[1] = Photophysical parameters of Sen and PPGs (UV-vis absorption, emission, energy levels); assay type: physicochemical; design: λabs maximum absorption wavelength / λem maximum emission wavelength: unit not given here; settings: for λabs maximum absorption wavelength / λem maximum emission wavelength / ξ molar extinction coefficient: in toluene, 10 μM; for T1 triplet excited state: photosensitizers (Sen), from maximum phosphorescence emission
Protocol: Characterization: ^1H NMR spectra were recorded with a Bruker 500 MHz spectrometer. UV-Vis spectra were recorded on an Agilent Cary-5 spectrophotometer. Steady-state fluorescence spectra were measured on a HITACHI F-7000 spectrometer. […] The sample for TEM measurement was prepared by dropping the solution onto a carbon-coated copper grid following negative staining with 2.0% (w/v) phosphotungstic acid. The particle size and size distribution were measured by using dynamic light scattering (DLS) on a Malvern Nano-ZS particle size analyzer, excitation wavelength 532 nm. All samples in the Stern-Volmer quenching plots experiments were deaerated with argon for ca. 15 min before measurement and the gas flow was maintained during the measurements. For the TTA upconversion spectra measurement, the diode pumped solid-state laser (650 nm, continues wave, CW, Hi-Teach company, China) was used as the excitation light source and a modified spectrofluorometer was used to record the upconversion spectra. For the prodrug photolytic experiment, an All LED (Mightex Company) was used as the excitation light source.
From the absorption and emission spectra of Sen and PPGs, the triplet and singlet energy levels of PPG and Sen can be calculated. The maximum emission wavelength of phosphorescence is the triplet excited state energy level (T1) of the Sen. The maximum emission wavelength of fluorescence is the singlet excited state energy level (S1) of the PPGs. Moreover, according to the literature, we know the triplet excited energy levels of PPGs. The detail information is always in […]

[2] = Photolytic molecule experiment: TTAP photolytic reaction in solution under LED, HPLC yield; assay type: physicochemical
Protocol: Photolytic molecule experiment: The NIR LED (720 nm), far red LED (650 nm), green LED (530 nm), blue LED (476 nm) and deep blue (455 nm) were used for photolytic reactions. […] Then, the solution was excited with a LED (20 mW/cm^2) at 37° C. After the photolytic reaction, the raw product was dried and re-dissolved in CH3CN/H2O=(2/1, v/v) and HPLC was used to analyze the yield of product.

[3] = PPGs; from the literature; cited from earlier work
[4] = cited from earlier work
[5] = Photocleavage quantum yield / photolytic quantum efficiency calculation
Description: We compared photolytic quantum efficiency of the widely used PPG of Cou by using the UCNPs as phototransducer.

[6] = PdTPBP, far-red LED light (20 mW/cm^2, 650 nm)
[7] = PtTNP, NIR LED light (20 mW/cm^2, 720 nm, 1 h)
[8] = PtOEP, green LED light (20 mW/cm^2, 532 nm)
[9] = One photon: 120 mW/cm^2, λ > 400 nm
[10] = UCNPs as photo transducers, 570 mW cm^−2, λ = 980 nm

## CCC1=C(CC)c2cc3[n-]c(cc4nc(cc5[n-]c(cc1n2)c(CC)c5CC)C(CC)=C4CC)c(CC)c3CC.[Pt+2] [PtOEP, platinum octaethylporphyrin]
[1]
  λabs maximum absorption wavelength: 533
  λem maximum emission wavelength: 647
  ξ molar extinction coefficient: 7.0 10^4 M^−1 cm^−1
  T1 triplet excited state: 1.92 eV

## COc1ccc2c(c1)c(CC(=O)OCc1ccc3c4cccc5cccc(c6cccc1c63)c54)c(C)n2C(=O)c1ccc(Cl)cc1 [compound 17]
[2]; [6]
  photolytic yield: 51.7%
[2]; [7]
  photolytic yield: 9.2%

## c1cc2cccc3c4cccc5cccc(c(c1)c23)c54 [Perylene, perylene]
[3]
  T1 triplet excited state: 1.52 eV
[4]; 110 mW/cm^2 Hg lamp, >410 nm
  Photocleavage quantum yield: 0.093
  Photolytic efficiency (ε × Φ): 3627
[4]; 125 WHg lamp, ≥410 nm
  Photocleavage quantum yield: 0.093
  Photolytic efficiency (ε × Φ): 3627
[4]; TTAP, 20 mW/cm^2, λ = 650 nm
  Photocleavage quantum yield: 0.093
[5]; TTAP, 20 mW/cm^2, λ = 650 nm
  Overall photocleavage quantum yield: 12400

## CC(C)(C)OC(=O)N[C@@H](CSSC(C)(C)C)C(=O)OCc1ccc2c3cccc4cccc(c5cccc1c52)c43 [compound 14]
[2]; [6]
  photolytic yield: 81.2%
[2]; [7]
  photolytic yield: 23.3%

## CCCCNC(=O)OCc1c2ccccc2cc2ccccc12 [compound 4]
[2]; [8]
  photolytic yield: 51.0%

## CCCCNC(=O)OCc1ccc2c3cccc4cccc(c5cccc1c52)c43 [compound 10]
[2]; [6]
  photolytic yield: 52.4%
[2]; [7]
  photolytic yield: 29.3%

## COc1ccc2cc(C(C)C(=O)OCc3ccc4c5cccc6cccc(c7cccc3c74)c65)ccc2c1 (stereo not drawn) [compound 16]
[2]; [6]
  photolytic yield: 78.5%
[2]; [7]
  photolytic yield: 17.4%

## O=C(CCCc1ccc(N(CCCl)CCCl)cc1)OCc1ccc2c3cccc4cccc(c5cccc1c52)c43 [compound 19]
[2]; Compound 19 only, 720 nm LED, 1 h
  Yield (HPLC yield): No reaction
[2]; Compound 19 only, argon, 720 nm LED, 1 h
  Yield (HPLC yield): No reaction
[2]; Compound 19 only, argon, red light, 2 h
  Yield (HPLC yield): No reaction
[2]; Compound 19 only, red light, 2 h
  Yield (HPLC yield): No reaction
[2]; PdTPBP, air, red light, 2 h
  Yield (HPLC yield): 7
[2]; PdTPBP, argon, dark, 2 h
  Yield (HPLC yield): No reaction
[2]; PdTPBP, argon, red light, 1 h
  Yield (HPLC yield): 72.8
[2]; PdTPBP, argon, red light, 2 h
  Yield (HPLC yield): 67.0
[2]; [6]
  photolytic yield: 72.8%
[2]; [7]
  photolytic yield: 30.4%
[2]; PtTNP, air, 720 nm LED, 1 h
  Yield (HPLC yield): No reaction
[2]; PtTNP, argon, dark, 1 h
  Yield (HPLC yield): No reaction
[2]; PtTNP, argon, 720 nm LED, 1 h
  Yield (HPLC yield): 30.4

## CC(C)(C)OC(=O)NCC(=O)OCc1c2ccccc2cc2ccccc12 [compound 5]
[2]; [8]
  photolytic yield: 58.4%

## [Pd+2].c1ccc(-c2c3nc(c(-c4ccccc4)c4[n-]c(c(-c5ccccc5)c5nc(c(-c6ccccc6)c6[n-]c2c2ccccc62)-c2ccccc2-5)c2ccccc42)-c2ccccc2-3)cc1 [PdTPBP, meso-tetraphenyltetrabenzoporphine palladium complex]
[1]
  λabs maximum absorption wavelength: 630
  λem maximum emission wavelength: 790
  ξ molar extinction coefficient: 11.0 10^4 M^−1 cm^−1
  T1 triplet excited state: 1.55 eV

## CC(C)COC(=O)OCc1ccc2c3cccc4cccc(c5cccc1c52)c43 [compound 9]
[2]; [6]
  photolytic yield: 65.3%
[2]; [7]
  photolytic yield: 27.8%

## CC(C)(C)OC(=O)NCC(=O)OCc1ccc2c3cccc4cccc(c5cccc1c52)c43 [compound 12]
[2]; [6]
  photolytic yield: 89.2%
[2]; [7]
  photolytic yield: 29.6%

## anthracene [reference compound]
[3]
  T1 triplet excited state: 1.77 eV

## CC(C)Cc1ccc(C(C)C(=O)OCc2ccc3c4cccc5cccc(c6cccc2c63)c54)cc1 (stereo not drawn) [compound 18]
[2]; [6]
  photolytic yield: 71.6%
[2]; [7]
  photolytic yield: 19.4%

## O=c1ccc2ccccc2o1 [Coumarin, coumarin]
[3]
  T1 triplet excited state: 2.18 eV
[4]; [9]
  Photocleavage quantum yield: 0.13
  Photolytic efficiency (ε × Φ): 806
[4]; [10]
  Photocleavage quantum yield: 0.13
[5]; [10]
  Overall photocleavage quantum yield; η (upconversion): <0.02873

## CC(C)COC(=O)OCc1c2ccccc2cc2ccccc12 [compound 3]
[2]; [8]
  photolytic yield: 72.3%
